Measurements: ChEMBL document CHEMBL1129902, “Bioactivatable derivatives of 8-substituted cAMP-analogues” (Bioorg Med Chem Lett, 1997)

What was measured:
[1] = target: cAMP-dependent protein kinase (PKA) (Homo sapiens, UniProt P22694+P17612+P22612); test: Activation of cAMP dependent protein kinase (PKA); assay type: functional
[2] = Lipophilicity relative to cAMP (log Kw=1); assay type: physicochemical

| EC50 [1] [µM] | Log Kw [2] | Structure (SMILES) |
| --- | --- | --- |
| – | > 2 | CC(=O)OCOP1(=O)OC[C@@H]2O[C@@H](n3c(NCCO)nc4c(N)ncnc43)[C@H](O)[C@@H]2O1 (some centres not stated) |
| – | > 2 | CC(=O)OCOP1(=O)OC[C@@H]2O[C@@H](n3c(Br)nc4c(N)ncnc43)[C@H](O)[C@@H]2O1 (some centres not stated) |
| 10 | > 3.5 | CC(=O)OCOP1(=O)OC[C@@H]2O[C@@H](n3c(N4CCCCC4)nc4c(N)ncnc43)[C@H](O)[C@@H]2O1 (some centres not stated) |

More lines, now with the values behind:

| Structure (SMILES) | EC50 [1] [µM] | Log Kw [2] |
| --- | --- | --- |
| Nc1ncnc2c1nc(Sc1ccc(Cl)cc1)n2[C@@H]1O[C@@H]2COP(=O)(O)O[C@H]2[C@H]1O | 20 | – |
| CC(=O)OCOP1(=O)OC[C@@H]2O[C@@H](n3c(Sc4ccc(Cl)cc4)nc4c(N)ncnc43)[C@H](O)[C@@H]2O1 (some centres not stated) | 0.15 | > 4 |
